Experimental data from ChEMBL document CHEMBL1131864, “Effects of sesquiterpenes and triterpenes from the rhizome of Alisma orientale on nitric oxide production in lipopolysaccharide-activated macrophages: absolute stereostructures of alismaketones-B 23-acetate and -C 23-acetate” (Bioorg Med Chem Lett, 1999).

Organism: Mus musculus
Assay: Inhibition of nitric oxide production in LPS-activated mouse macrophages at a concentration of 3 uM
Type: functional

Going from C[C@@H]1CC([C@@H](O)C(C)(C)O)OC2C[C@@]3(C)C(=C21)C[C@H](O)C1[C@@]2(C)CCC(=O)C(C)(C)C2CC[C@@]13C (stereo partly drawn) to CC(=O)O[C@H]([C@@H](O)C[C@@H](C)C1=C2C[C@H](O)C3[C@@]4(C)CCC(=O)C(C)(C)C4CC[C@]3(C)[C@@]2(C)CC1)C(C)(C)O (stereo partly drawn), the inhibition at 3 µM falls from 14.8% to 6.4%.

First: CC(=O)O[C@@H](C[C@@H](C)C1=C2C[C@@H]3OC(=O)C[C@@]4(C)C(C(C)(C)C(=O)O)CC[C@@](C)(C34)[C@@]2(C)CC1)[C@H]1OC1(C)C (stereo partly drawn)
Second: C[C@H](C[C@H](O)[C@H]1OC1(C)C)C1=C2C[C@H](O)C3[C@@]4(C)CCC(=O)C(C)(C)C4CC[C@]3(C)[C@@]2(C)CC1 (stereo partly drawn)
The inhibition at 3 µM of the first is higher: 23.2% for the first, 21.3% for the second.

Going from O=C(/C=C/c1ccc(O)c(O)c1)OCCc1ccccc1 [CAFFEIC ACID PHENETHYL ESTER] to CNC(=N)NCCC[C@H](N)C(=O)O [TILARGININE], the inhibition at 3 µM falls from 25.5% to 2%.

Compared with C=C1/C=C/[C@H](C(C)C)CC/C(C)=C/CC1 [GERMACRENE D], N=C(N)NCCSSCCNC(=N)N [GUANIDINOETHYLDISULFIDE] is higher in inhibition at 3 µM: 1.6% for the first, 76.3% for the second.

Organism: Mus musculus
Assay: Concentration required for inhibition of nitric oxide production in LPS-activated mouse macrophages
Type: functional

C[C@@H]1CC([C@@H](O)C(C)(C)O)OC2C[C@@]3(C)C(=C21)C[C@H](O)C1[C@@]2(C)CCC(=O)C(C)(C)C2CC[C@@]13C (stereo partly drawn) and CC(=O)O[C@H]([C@@H](O)C[C@@H](C)C1=C2C[C@H](O)C3[C@@]4(C)CCC(=O)C(C)(C)C4CC[C@]3(C)[C@@]2(C)CC1)C(C)(C)O (stereo partly drawn) cannot be ordered by IC50: 15 µM for the first, over 10 µM for the second.

CC(=O)O[C@@H](C[C@@H](C)C1=C2C[C@@H]3OC(=O)C[C@@]4(C)C(C(C)(C)C(=O)O)CC[C@@](C)(C34)[C@@]2(C)CC1)[C@H]1OC1(C)C (stereo partly drawn) and C[C@H](C[C@H](O)[C@H]1OC1(C)C)C1=C2C[C@H](O)C3[C@@]4(C)CCC(=O)C(C)(C)C4CC[C@]3(C)[C@@]2(C)CC1 (stereo partly drawn) cannot be ordered by IC50: 16 µM for the first, over 10 µM for the second.

Going from O=C(/C=C/c1ccc(O)c(O)c1)OCCc1ccccc1 [CAFFEIC ACID PHENETHYL ESTER] to CNC(=N)NCCC[C@H](N)C(=O)O [TILARGININE], the IC50 rises from 4 µM to 28 µM (7-fold). The first is the more potent here.

Going from C=C1/C=C/[C@H](C(C)C)CC/C(C)=C/CC1 [GERMACRENE D] to N=C(N)NCCSSCCNC(=N)N [GUANIDINOETHYLDISULFIDE], the IC50 falls from 58 µM to 1.4 µM (41-fold). The second is the more potent here.

Organism: Mus musculus
Assay: Inhibition of nitric oxide production in LPS-activated mouse macrophages at a concentration of 100 uM
Type: functional

First: C[C@@H]1CC([C@@H](O)C(C)(C)O)OC2C[C@@]3(C)C(=C21)C[C@H](O)C1[C@@]2(C)CCC(=O)C(C)(C)C2CC[C@@]13C (stereo partly drawn)
Second: CC(=O)O[C@H]([C@@H](O)C[C@@H](C)C1=C2C[C@H](O)C3[C@@]4(C)CCC(=O)C(C)(C)C4CC[C@]3(C)[C@@]2(C)CC1)C(C)(C)O (stereo partly drawn)
The inhibition at 100 µM of the first is lower: 99.5% for the first, 112% for the second.

First: CC(=O)O[C@@H](C[C@@H](C)C1=C2C[C@@H]3OC(=O)C[C@@]4(C)C(C(C)(C)C(=O)O)CC[C@@](C)(C34)[C@@]2(C)CC1)[C@H]1OC1(C)C (stereo partly drawn)
Second: C[C@H](C[C@H](O)[C@H]1OC1(C)C)C1=C2C[C@H](O)C3[C@@]4(C)CCC(=O)C(C)(C)C4CC[C@]3(C)[C@@]2(C)CC1 (stereo partly drawn)
The inhibition at 100 µM of the first is lower: 90.7% for the first, 108% for the second.

First: O=C(/C=C/c1ccc(O)c(O)c1)OCCc1ccccc1 [CAFFEIC ACID PHENETHYL ESTER]
Second: CNC(=N)NCCC[C@H](N)C(=O)O [TILARGININE]
The inhibition at 100 µM of the first is higher: 104% for the first, 79.2% for the second.

First: C=C1/C=C/[C@H](C(C)C)CC/C(C)=C/CC1 [GERMACRENE D]
Second: N=C(N)NCCSSCCNC(=N)N [GUANIDINOETHYLDISULFIDE]
The inhibition at 100 µM of the first is lower: 68.5% for the first, 105% for the second.

Organism: Mus musculus
Assay: Inhibition of nitric oxide production in LPS-activated mouse macrophages at a concentration of 30 uM
Type: functional

Compared with C[C@@H]1CC([C@@H](O)C(C)(C)O)OC2C[C@@]3(C)C(=C21)C[C@H](O)C1[C@@]2(C)CCC(=O)C(C)(C)C2CC[C@@]13C (stereo partly drawn), CC(=O)O[C@H]([C@@H](O)C[C@@H](C)C1=C2C[C@H](O)C3[C@@]4(C)CCC(=O)C(C)(C)C4CC[C@]3(C)[C@@]2(C)CC1)C(C)(C)O (stereo partly drawn) is higher in inhibition at 30 µM: 69.6% for the first, 71% for the second.

Going from CC(=O)O[C@@H](C[C@@H](C)C1=C2C[C@@H]3OC(=O)C[C@@]4(C)C(C(C)(C)C(=O)O)CC[C@@](C)(C34)[C@@]2(C)CC1)[C@H]1OC1(C)C (stereo partly drawn) to C[C@H](C[C@H](O)[C@H]1OC1(C)C)C1=C2C[C@H](O)C3[C@@]4(C)CCC(=O)C(C)(C)C4CC[C@]3(C)[C@@]2(C)CC1 (stereo partly drawn), the inhibition at 30 µM rises from 65.6% to 109%.

Going from O=C(/C=C/c1ccc(O)c(O)c1)OCCc1ccccc1 [CAFFEIC ACID PHENETHYL ESTER] to CNC(=N)NCCC[C@H](N)C(=O)O [TILARGININE], the inhibition at 30 µM falls from 104% to 52.3%.

Compared with C=C1/C=C/[C@H](C(C)C)CC/C(C)=C/CC1 [GERMACRENE D], N=C(N)NCCSSCCNC(=N)N [GUANIDINOETHYLDISULFIDE] is higher in inhibition at 30 µM: 29% for the first, 105% for the second.

Organism: Mus musculus
Assay: Inhibition of nitric oxide production in LPS-activated mouse macrophages at a concentration of 10 uM
Type: functional

Going from C[C@@H]1CC([C@@H](O)C(C)(C)O)OC2C[C@@]3(C)C(=C21)C[C@H](O)C1[C@@]2(C)CCC(=O)C(C)(C)C2CC[C@@]13C (stereo partly drawn) to CC(=O)O[C@H]([C@@H](O)C[C@@H](C)C1=C2C[C@H](O)C3[C@@]4(C)CCC(=O)C(C)(C)C4CC[C@]3(C)[C@@]2(C)CC1)C(C)(C)O (stereo partly drawn), the inhibition at 10 µM falls from 40.3% to 13.4%.

Going from CC(=O)O[C@@H](C[C@@H](C)C1=C2C[C@@H]3OC(=O)C[C@@]4(C)C(C(C)(C)C(=O)O)CC[C@@](C)(C34)[C@@]2(C)CC1)[C@H]1OC1(C)C (stereo partly drawn) to C[C@H](C[C@H](O)[C@H]1OC1(C)C)C1=C2C[C@H](O)C3[C@@]4(C)CCC(=O)C(C)(C)C4CC[C@]3(C)[C@@]2(C)CC1 (stereo partly drawn), the inhibition at 10 µM falls from 38.2% to 36.3%.

Compared with O=C(/C=C/c1ccc(O)c(O)c1)OCCc1ccccc1 [CAFFEIC ACID PHENETHYL ESTER], CNC(=N)NCCC[C@H](N)C(=O)O [TILARGININE] is lower in inhibition at 10 µM: 97.5% for the first, 17.7% for the second.

First: C=C1/C=C/[C@H](C(C)C)CC/C(C)=C/CC1 [GERMACRENE D]
Second: N=C(N)NCCSSCCNC(=N)N [GUANIDINOETHYLDISULFIDE]
The inhibition at 10 µM of the first is lower: 16.7% for the first, 102% for the second.

Organism: Mus musculus
Assay: Inhibition of nitric oxide production in LPS-activated mouse macrophages at a concentration of 1 uM
Type: functional

Going from C[C@@H]1CC([C@@H](O)C(C)(C)O)OC2C[C@@]3(C)C(=C21)C[C@H](O)C1[C@@]2(C)CCC(=O)C(C)(C)C2CC[C@@]13C (stereo partly drawn) to CC(=O)O[C@H]([C@@H](O)C[C@@H](C)C1=C2C[C@H](O)C3[C@@]4(C)CCC(=O)C(C)(C)C4CC[C@]3(C)[C@@]2(C)CC1)C(C)(C)O (stereo partly drawn), the inhibition at 1 µM falls from 7.5% to -2.9%.

Compared with CC(=O)O[C@@H](C[C@@H](C)C1=C2C[C@@H]3OC(=O)C[C@@]4(C)C(C(C)(C)C(=O)O)CC[C@@](C)(C34)[C@@]2(C)CC1)[C@H]1OC1(C)C (stereo partly drawn), C[C@H](C[C@H](O)[C@H]1OC1(C)C)C1=C2C[C@H](O)C3[C@@]4(C)CCC(=O)C(C)(C)C4CC[C@]3(C)[C@@]2(C)CC1 (stereo partly drawn) is higher in inhibition at 1 µM: 10.3% for the first, 13.2% for the second.

First: O=C(/C=C/c1ccc(O)c(O)c1)OCCc1ccccc1 [CAFFEIC ACID PHENETHYL ESTER]
Second: CNC(=N)NCCC[C@H](N)C(=O)O [TILARGININE]
The inhibition at 1 µM of the first is lower: -1.9% for the first, 4.4% for the second.

First: C=C1/C=C/[C@H](C(C)C)CC/C(C)=C/CC1 [GERMACRENE D]
Second: N=C(N)NCCSSCCNC(=N)N [GUANIDINOETHYLDISULFIDE]
The inhibition at 1 µM of the first is lower: 7.5% for the first, 39.1% for the second.
